Data from patent US6825230B2, “Spiro and dispiro 1,2,4-trixolane antimalarials” (Medicines for Malaria Venture MMV, priority 2002, dated 2004).
Like-named read-outs stand apart in the source and are kept apart here.

Columns and labels:
[1] = tested on: ANKA strain of P. berghei; test: Single dose STI in vivo screen in infected mice; set-up: species or system Plasmodium berghei; settings: for Survival (days) 10 mg/kg SSV po: single 10 mg/kg po in SSV, untreated 6-7 days
[2] = tested on: P. berghei ANKA strain; test: Onset of action and recrudescence experiment, single 100 mg/kg po; format: in vivo, Plasmodium berghei; settings: single 100 mg/kg po (SSV) on day +3 post-infection; recrudescence = >5% parasitemia; followed up to 60 days; groups of five
Experimental: The onset of drug action was determined after a single fixed dose of 100 mg/kg (SSV vehicle) po to groups of five animals on day +3 post-infection (day 0).
Moro NMRI male mice (Fu Albino specific pathogen free) weighing 18±2 g were infected intravenously (i.v.) with 2×10^7 P. berghei ANKA strain-infected erythrocytes from donor mice on day 0 of the experiment. From donor mice with circa 30% parasitemia, heparinized blood was taken and diluted in physiological saline to 10^8 parasitized erythrocytes per ml. An aliquot (0.2 ml) of this suspension was injected i.v. into experimental and control groups of mice. […] Throughout the experiments, mice were kept in groups of three or five animals in Makrolon type II cages in an air-conditioned animal room at 22 to 23° C.

[3] = tested on: Schistosoma mansoni adult worms (49-day-old); test: Effect on adult schistosomes (49-day-old) in infected mice; format: in vivo; settings: single 400 mg/kg per os; for % reduction of adult worms growth at day 49 after per os application of 400 mg/kg, TWR (%): 49-day-old adults, total worm reduction rate; for Adult worms day 49, per os 400 mg/kg, DEAD WORM (%): percentage of dead worm in the liver
Experimental: Mice were infected with 100 Schistosoma mansoni cercariae on day 49 post-treatment. Each group was treated per os with OZ compounds at single doses of 200, 400, and 600 mg/kg. Untreated mice served as the control. All groups were killed 4 weeks after treatment and the liver and intestine were removed and separated. The liver and intestine were compressed and alive male and female worms could be seen and counted.

[4] = tested on: ANKA strain of Plasmodium berghei; test: Single dose ED50/ED90/ED99 determination in infected mice; format: in vivo; settings: for ED50: Plasmodium berghei
In short: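 Moro SPF or NMRI mice (three per group) infected with P. berghei ANKA were dosed once on day 1 post-infection in SSV (0.5% CMC, 0.5% benzyl alcohol, 0.4% Tween 80, 0.9% NaCl). Parasitemia reduction was scored on day 3; ED values (mg/kg) came from nonlinear fitting.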

[5] = Pharmacokinetics in rats (IV and oral dosing); settings: in vivo, rat
From the text: (§1) Artesunate is listed as a reference compound.

[6] = Pharmacokinetics in dogs (IV and oral dosing); settings: in vivo, dog; for bioavailability: some values marked (V), not defined
From the text: as §1

[7] = tested on: P. berghei ANKA strain; test: Divided 3x10 mg/kg vs single 1x30 mg/kg po dose in infected mice; format: in vivo, Plasmodium berghei; settings: for Survival (days) 3 × 10 mg/kg p.o. SSV / Activity (%) 3 × 10 mg/kg p.o. SSV: 10 mg/kg po on days 1, 2, 3 post-infection; for Activity (%) 3 × 10 mg/kg p.o. SSV / Activity (%) 1 × 30 mg/kg p.o. SSV: parasitemia reduction on day 4; for Survival (days) 1 × 30 mg/kg p.o. SSV / Activity (%) 1 × 30 mg/kg p.o. SSV: single 30 mg/kg po on day 1 post-infection; for Cures 1 × 30 mg/kg p.o. SSV: single 30 mg/kg po, cure = survival to day 30 post-infection
[8] = tested on: P. berghei ANKA strain; test: Divided 3x3 mg/kg and 3x1 mg/kg po doses in infected mice; format: in vivo, Plasmodium berghei
In short: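 Male NMRI mice were infected i.v. with 2×10^7 P. berghei-parasitized erythrocytes on day 0, then dosed orally in SSV vehicle on days 1, 2 and 3 post-infection.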

[9] = tested on: P. berghei ANKA strain; test: Prophylactic activity, single 100 mg/kg po at various times before infection; format: in vivo, Plasmodium berghei; settings: for Prophylactic Activity (%) 24 h: single 100 mg/kg po 24 h before infection; for Prophylactic Activity (%) 48 h: single 100 mg/kg po 48 h before infection; for Prophylactic Activity (%) 0 h: single 100 mg/kg po at 0 h
[10] = tested on: chloroquine-resistant K1 strain of P. falciparum; test: In vitro antimalarial semiautomated microdilution assay ([3H]-hypoxanthine incorporation), K1 strain; format: cell-based, Plasmodium falciparum; settings: Plasmodium falciparum, K1, 72 h, read-out: IC50 (ng/ml) K1, chloroquine-resistant K1 strain, 72 h incubation
In short: (§2)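 Asynchronous stock-culture parasites (intraerythrocytic forms), serial compound dilutions; readout [3H]-hypoxanthine uptake; IC50 via Logit regression.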

[11] = tested on: chloroquine-sensitive NF54 strain of P. falciparum; test: In vitro antimalarial semiautomated microdilution assay ([3H]-hypoxanthine incorporation), NF54 strain; format: cell-based, Plasmodium falciparum; settings: Plasmodium falciparum, NF54, 72 h, read-out: IC50 (ng/ml) NF54, chloroquine-sensitive NF54 strain, 72 h incubation
In short: as §2

[12] = single dose po in SSV on day 1 post-infection, parasitemia day 3, nonlinear fitting
[13] = oral 10 mg/kg, read-out: Dog Oral Bioavailability 10 mg/kg
[14] = oral 25 mg/kg, read-out: Dog Oral Bioavailability 25 mg/kg
[15] = 3 × 1 mg/kg p.o. SSV on days 1, 2, 3 post-infection
[16] = 3 × 3 mg/kg p.o. SSV on days 1, 2, 3 post-infection
[17] = 3 × 3 mg/kg p.o. SSV on days 1, 2, 3 post-infection, percent reduction of parasitemia vs control on day 4
[18] = parasitemia reduction on day 3 post-infection

| SMILES | Survival (days) 10 mg/kg SSV po [1] [days] | Time of Recrudescence [2] [days] | % reduction of adult worms growth at day 49 after per os application of 400 mg/kg, TWR (%) [3] | Adult worms day 49, per os 400 mg/kg, DEAD WORM (%) [3] | ED99 [4, 12] [mg/kg] | half-life ([5]; IV 10 mg/kg) [h] | half-life ([5]; oral 25 mg/kg) [h] | half-life ([6]; IV 10 mg/kg) [h] | half-life ([6]; oral 10 mg/kg) [h] | bioavailability [6, 13] [%] | bioavailability [6, 14] [%] | Survival (days) 3 × 10 mg/kg p.o. SSV [7] [days] | Activity (%) 3 × 10 mg/kg p.o. SSV [7] [%] | Survival (days) 1 × 30 mg/kg p.o. SSV [7] [days] | Activity (%) 1 × 30 mg/kg p.o. SSV [7] [%] | Cures 1 × 30 mg/kg p.o. SSV [7] | Survival [8, 15] [days] | Survival [8, 16] [days] | Activity (%) [8, 17] [%] | Prophylactic Activity (%) 24 h [9, 18] [%] | other results |
| --- | --- | --- | --- | --- | --- | --- | --- | --- | --- | --- | --- | --- | --- | --- | --- | --- | --- | --- | --- | --- | --- |
| CC(C)(N)CNC(=O)C[C@H]1CC[C@]2(CC1)OO[C@]1(O2)C2CC3CC(C2)CC1C3 [OZ277] | 9.3 | 13.0 | 0/0% | 0/0% | 4.4 | 1.29 | 1.51 | 1.58 | 2.47 | 87.9 | 96.1 | 27.6 | 100 | 10.4 | 99.92 | 0/5 | 9.4 | 14 | 100 | 25 | Survival (days) 3 mg/kg SSV po ([1]; single 3 mg/kg po in SSV): 9.6 days; ED50 ([4]; single dose po in SSV on day 1 post-infection, parasitemia day 3, nonlinear fitting, read-out: ED50): 0.78 mg/kg; ED90 ([4]; po): 2.0 mg/kg; bioavailability ([5]; po, 10 mg/kg): 36.9%; bioavailability ([5]; po, 25 mg/kg): 44.1%; Activity (%) ([8]; po, 1 mg/kg, 96 h): 83%; Cures ([8]; po, 3 mg/kg, 720 h): 0\5; Prophylactic Activity (%) 72 h ([9]; po, 100 mg/kg): 9%; Prophylactic Activity (%) 48 h [9, 18]: 7%; Prophylactic Activity (%) 0 h [9, 18]: 100% |
| Cc1ccc(S(=O)(=O)O)cc1.O=C(C[C@H]1CC[C@]2(CC1)OO[C@]1(O2)C2CC3CC(C2)CC1C3)N1CCNCC1 [OZ279] | 9.3 | 15.0 | 0% | 12% | 3.9 | 1.68 | 2.78 | 2.96 | 3.26 | 32.8 | 55.7 | 25.4 | 100 | 14.8 | 99.95 | 0/5 | 8.8 | 14.8 | 100 | 97 | IC50 [10]: 0.21 ng/mL; IC50 [11]: 0.24 ng/mL; Activity (%) 3 mg/kg SSV po ([1]; single 3 mg/kg po in SSV, percent reduction in parasitemia on day 3): 99.42%; Activity (%) 10 mg/kg SSV po ([1]; single 10 mg/kg po in standard suspending vehicle (SSV) on day 1 post-infection, percent reduction in parasitemia on day 3): 99.98%; ED50 ([4]; po, single dose po in SSV on day 1 post-infection, parasitemia day 3, nonlinear fitting): 0.63 mg/kg; ED90 [4, 12]: 1.8 mg/kg; bioavailability ([5]; oral 10 mg/kg, read-out: Rat Oral Bioavailability 10 mg/kg): 37.2%; bioavailability ([5]; oral 25 mg/kg, read-out: Rat Oral Bioavailability 25 mg/kg): 71.1%; Activity (%) ([8]; 3 × 1 mg/kg p.o. SSV on days 1, 2, 3 post-infection, percent reduction of parasitemia vs control on day 4): 83%; Prophylactic Activity (%) 48 h [9, 18]: 27%; Prophylactic Activity (%) 72 h ([9]; single 100 mg/kg po 72 h before infection, parasitemia reduction on day 3 post-infection): 14%; Prophylactic Activity (%) 0 h [9, 18]: 100% |
